Results as given in PubChem BioAssay AID467 (The Scripps Research Institute Molecular Screening Center, 2006).
pEC50: −log10 of the molar value. Activity calls are given as the source filed them. How the calls were made is not given here.

Tested on: parental cell line counter screen, S1P1 agonist assay readout
Assay: signal in parental cells, counter-screen for S1P1 agonist project (AID 467);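 further: agonist potency measured against forskolin stimulation plus an EC20 level of SEW2871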

| SMILES | EC50 | pEC50 |
| --- | --- | --- |
| COc1ccc2ncn(-c3ccccc3)c2c1 | > 95.1 µM (inactive) |  |
| CCc1oc2ccccc2c1C(=O)c1cc(Br)c(O)c(Br)c1 | 13.5 µM (inactive) |  |
| CCOc1ccc(C2CC(c3cccc(OC)c3OC)n3nnnc3N2)cc1Cl (configuration not stated) | > 95.1 µM (inactive) |  |
| CC(C)(C)OC(=O)N[C@@H](Cc1ccccc1)c1nnc(S(=O)(=O)Cc2cccc(F)c2)o1 |  | 5.58 |
| Cc1ccc2nc(C(F)(F)F)c(C#N)c(N)c2c1 |  | 5.19 |
| COc1cccc(N2CCN(c3ncnc4c3[nH]c3ccccc34)CC2C)c1 (configuration not stated) |  | 5.32 |
| Cc1ccc2c(c1)N(CC(=O)Nc1ccc3c(c1)OCCO3)C(=O)CO2 | > 95.1 µM (inactive) |  |
| COc1ccc(-n2nnnc2S(=O)(=O)CC(=O)N2CCCCC2)cc1 |  | 5.63 |
| Clc1ccc(NCn2cncn2)nc1 | > 95.1 µM (inactive) |  |
| COCCN(C(=O)c1ccccc1)c1nnc(-c2cccnc2)s1 | > 95.1 µM (inactive) |  |
| Cc1nc2ccccc2c2oc(C(=O)NCC3COc4ccccc4O3)cc12 (configuration not stated) | 20.2 µM (inactive) |  |
| Fc1ccc2[nH]c3c(N4CCN(c5ccccc5)CC4)ncnc3c2c1 | 18.5 µM (inactive) |  |
| COC(=O)c1ccc(C(c2c(N)n(CC(C)C)c(=O)[nH]c2=O)N2CCN(c3ccccc3)CC2)cc1 (configuration not stated) | > 95.1 µM (inactive) |  |
| CCn1c(SCC(=O)Nc2nc3ccc(C)cc3s2)nc2c(c1=O)SC(C)C2 (configuration not stated) | > 10 µM (inactive) |  |
| COc1ccc(-c2cn3c(C)c(C(=O)N4CCCc5ccccc54)sc3n2)cc1 | > 95.1 µM (inactive) |  |
| COc1ccc(S(=O)(=O)Cc2ccc(C(=O)N3CCN(c4ccc(Cl)cc4)CC3)o2)cc1 | > 30 µM (inactive) |  |
| O=C(CSc1nc2ccccc2o1)Nc1ccc(N2CCOCC2)c(Cl)c1 | 19.6 µM (inactive) |  |
